Laboratory results as given in patent publication US20100125081A1, “NEW COMPOUNDS 574” (ASTRAZENECA AB, priority 2008, published 2010).
Structures can show the parent of a compound that is named as a salt.

Biological target: T1, human β-Secretase (Homo sapiens, UniProt P56817)
T1 construct: soluble part of the human β-Secretase (AA 1-AA 460); Fc domain of IgG1 (C); made in house
Assay: TR-FRET assay (β-secretase enzyme, sBACE-Fc)
Format: biochemical
Conditions: soluble human β-secretase (AA 1-460) Fc fusion, substrate (Europium)CEVNLDAEFK(Qsy7) 100 nM, pH 4.5; unit inferred, nM taken
Method: The β-secretase enzyme used in the TR-FRET is prepared as follows:
The cDNA for the soluble part of the human β-Secretase (AA 1-AA 460) was cloned using the ASP2-Fc10-1-IRES-GFP-neoK mammalian expression vector. The gene was fused to the Fc domain of IgG1 (affinity tag) and stably cloned into HEK 293 cells.
The enzyme (truncated form) was diluted to 6 μg/mL (stock 1.3 mg/mL) and the substrate (Europium)CEVNLDAEFK(Qsy7) to 200 nM (stock 120 μM) in reaction buffer (NaAcetate, chaps, triton x-100, EDTA pH4.5). The robotic systems Biomek FX and Velocity 11 were used for all liquid handling and the enzyme and substrate solutions were kept on ice until they were placed in the robotic system. Enzyme (9 μl) was added to the plate then 1 μl of compound in dimethylsulphoxide was added, mixed and pre-incubated for 10 minutes. Substrate (10 μl) was then added, mixed and the reaction proceeded for 15 minutes at room temperature. The reaction was stopped with the addition of Stop solution (7 μl, NaAcetate, pH 9). The fluorescence of the product was measured on a Victor II plate reader with an excitation wavelength of 340 nm and an emission wavelength of 615 nm. The assay was performed in a Costar 384 well round bottom, low volume, non-binding surface plate (Corning #3676). The final concentration of the enzyme was 2.7 μg/ml; the final concentration of substrate was 100 nM (Km of ˜250 nM). The dimethylsulphoxide control, instead of test compound, defined the 100% activity level and 0% activity was defined by wells lacking enzyme (replaced with reaction buffer).

T1 sequence (P56817 22-460): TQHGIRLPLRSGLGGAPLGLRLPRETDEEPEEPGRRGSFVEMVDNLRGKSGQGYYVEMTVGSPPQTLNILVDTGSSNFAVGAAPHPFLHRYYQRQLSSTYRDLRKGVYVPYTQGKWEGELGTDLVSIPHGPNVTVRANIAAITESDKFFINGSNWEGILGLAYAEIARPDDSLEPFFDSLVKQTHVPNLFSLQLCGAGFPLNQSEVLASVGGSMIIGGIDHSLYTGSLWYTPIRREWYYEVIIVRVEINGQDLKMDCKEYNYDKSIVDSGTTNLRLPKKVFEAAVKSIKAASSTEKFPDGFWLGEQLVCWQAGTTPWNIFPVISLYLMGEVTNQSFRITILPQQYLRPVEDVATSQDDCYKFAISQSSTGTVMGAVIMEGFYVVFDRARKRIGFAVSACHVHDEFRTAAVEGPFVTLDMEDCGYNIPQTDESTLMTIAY

IC50	Structure (SMILES)
125 nM	COc1c(C)cc(C2(c3cccc(-c4cncnc4)c3)N=C(N)c3ncccc32)nc1C (centres unmarked) [Example 35, 5-(5-Methoxy-4,6-dimethyl-pyridin-2-yl)-5-(3-pyrimidin-5-yl-phenyl)-5H-pyrrolo[3,4-b]pyridin-7-ylamine]
30 nM	NC1=NC(c2cccc(-c3cncnc3)c2)(c2ccc(OC(F)F)c(CCF)c2)c2cccnc21 (centres unmarked) [Example 34, 5-[4-Difluoromethoxy-3-(2-fluoro-ethyl)-phenyl]-5-(3-pyrimidin-5-yl-phenyl)-5H-pyrrolo[3,4-b]pyridin-7-ylamine]
42 nM	Cc1cc(C2(c3cccc(-c4cncnc4)c3)N=C(N)c3ncccc32)cc(C)c1OCF (centres unmarked) [Example 26, 5-(4-(Fluoromethoxy)-3,5-dimethylphenyl)-5-(3-(pyrimidin-5-yl)phenyl)-5H-pyrrolo[3,4-b]pyridin-7-amine]
239 nM	NC1=NC(c2cccc(-c3cncc(Cl)c3)c2)(c2ccnc(C(F)(F)F)c2)c2cccnc21 (centres unmarked) [Example 21, 5-(3-(5-Chloropyridin-3-yl)phenyl)-5-(2-(trifluoromethyl)pyridin-4-yl)-5H-pyrrolo[3,4-b]pyridin-7-amine]
560 nM	NC1=NC(c2cccc(-c3cccnc3)c2)(c2ccnc(C(F)(F)F)c2)c2cccnc21 (centres unmarked) [Example 3, 5-(3-(Pyridin-3-yl)phenyl)-5-(2-(trifluoromethyl)pyridin-4-yl)-5H-pyrrolo[3,4-b]pyridin-7-amine]
41 nM	COc1c(C)cc(C2(c3cccc(-c4cncnc4)c3)N=C(N)c3ncccc32)cc1F (centres unmarked) [Example 36, 5-(3-Fluoro-4-methoxy-5-methylphenyl)-5-(3-(pyrimidin-5-yl)phenyl)-5H-pyrrolo[3,4-b]pyridin-7-amine]
350 nM	NC1=NC(c2cccc(-c3cncnc3)c2)(c2ccnc(C(F)(F)F)c2)c2cccnc21 (centres unmarked) [Example 2, 5-(3-(pyrimidin-5-yl)phenyl)-5-(2-(trifluoromethyl)pyridin-4-yl)-5H-pyrrolo[3,4-b]pyridin-7-amine]
> 31600 nM	NC1=NC(c2cccc(-c3cncnc3)c2)(c2ccnc(C(F)(F)F)c2)c2cccnc21 (single isomer, unassigned) [25, Isomer 1]
445 nM	Cc1cc(C2(c3cccc(-c4cncnc4)c3)N=C(N)c3ncccc32)cc(C(F)F)n1 (centres unmarked) [Example 20, 5-(2-(Difluoromethyl)-6-methylpyridin-4-yl)-5-(3-(pyrimidin-5-yl)phenyl)-5H-pyrrolo[3,4-b]pyridin-7-amine]
222 nM	COc1ccc(C2(c3cccc(-c4cncnc4)c3)N=C(N)c3ncccc32)cc1C1CC1 (centres unmarked) [Example 33, 5-(3-Cyclopropyl-4-methoxy-phenyl)-5-(3-pyrimidin-5-yl-phenyl)-5H-pyrrolo[3,4-b]pyridin-7-ylamine]
1600 nM	NC1=NC(c2cccc(-c3cncnc3)c2)(c2ccnc(OCC(F)(F)F)c2)c2cccnc21 (centres unmarked) [Example 16, 5-(3-(Pyrimidin-5-yl)phenyl)-5-(2-(2,2,2-trifluoroethoxy)pyridin-4-yl)-5H-pyrrolo[3,4-b]pyridin-7-amine 0.2 acetic acid]
1560 nM	NC1=NC(c2cccc(-c3cncnc3)c2)(c2ccnc(OCCCF)c2)c2cccnc21 (centres unmarked) [Example 28, 5-(2-(3-Fluoropropoxy)pyridin-4-yl)-5-(3-(pyrimidin-5-yl)phenyl)-5H-pyrrolo[3,4-b]pyridin-7-amine]
593 nM	Cc1cc(C2(c3cccc(-c4cncnc4)c3)N=C(N)c3ncccc32)cc(C)c1F (centres unmarked) [Example 14, 5-(4-Fluoro-3,5-dimethylphenyl)-5-(3-(pyrimidin-5-yl)phenyl)-5H-pyrrolo[3,4-b]pyridin-7-amine]
212 nM	COc1ccc(C2(c3cccc(-c4cncnc4)c3)N=C(N)c3ncccc32)cc1C(F)F (centres unmarked) [Example 24, 5-(3-(Difluoromethyl)-4-methoxyphenyl)-5-(3-(pyrimidin-5-yl)phenyl)-5H-pyrrolo[3,4-b]pyridin-7-amine]
248 nM	COc1ccc(C2(c3cccc(-c4cncnc4)c3)N=C(N)c3ncccc32)cc1Cl (centres unmarked) [Example 7, 5-(3-Chloro-4-methoxyphenyl)-5-(3-(pyrimidin-5-yl)phenyl)-5H-pyrrolo[3,4-b]pyridin-7-amine]
47 nM	Cc1cc(C2(c3cccc(-c4cncnc4)c3)N=C(N)c3ncccc32)cc(C)c1OC(F)F (centres unmarked) [Example 12, 5-(4-(Difluoromethoxy)-3,5-dimethylphenyl)-5-(3-(pyrimidin-5-yl)phenyl)-5H-pyrrolo[3,4-b]pyridin-7-amine]
639 nM	Cc1cc(C2(c3cccc(-c4cncnc4)c3)N=C(N)c3ncc(Cl)cc32)ccn1 (centres unmarked) [Example 10, 3-Chloro-5-(2-methylpyridin-4-yl)-5-(3-(pyrimidin-5-yl)phenyl)-5H-pyrrolo[3,4-b]pyridin-7-amine]

More lines, now with the values behind:

Structure (SMILES)	IC50
Cc1cc(C2(c3ccnc(-c4cncnc4)c3)N=C(N)c3ncccc32)cc(C)c1OC(F)F (centres unmarked) [Example 29, 5-(4-Difluoromethoxy-3,5-dimethyl-phenyl)-5-(2-pyrimidin-5-yl-pyridin-4-yl)-5H-pyrrolo[3,4-b]pyridin-7-ylamine]	106 nM
COc1ccnc(-c2cccc(C3(c4ccnc(C(F)(F)F)c4)N=C(N)c4ncccc43)c2)c1 (centres unmarked) [Example 19, 5-(3-(4-methoxypyridin-2-yl)phenyl)-5-(2-(trifluoromethyl)pyridin-4-yl)-5H-pyrrolo[3,4-b]pyridin-7-amine]	359 nM
N#Cc1ccnc(-c2cccc(C3(c4ccnc(C(F)(F)F)c4)N=C(N)c4ncccc43)c2)c1 (centres unmarked) [Example 22, 2-(3-(7-Amino-5-(2-(trifluoromethyl)pyridin-4-yl)-5H-pyrrolo[3,4-b]pyridin-5-yl)phenyl)isonicotinonitrile]	1800 nM
COc1ccc(C2(c3cccc(-c4cnccn4)c3)N=C(N)c3ncccc32)cc1Cl (centres unmarked) [Example 8, 5-(3-Chloro-4-methoxyphenyl)-5-(3-(pyrazin-2-yl)phenyl)-5H-pyrrolo[3,4-b]pyridin-7-amine]	610 nM
Cc1cc(C2(c3cccc(-c4cnccn4)c3)N=C(N)c3ncccc32)cc(C)c1OC(F)F (centres unmarked) [Example 13, 5-(4-(Difluoromethoxy)-3,5-dimethylphenyl)-5-(3-(pyrazin-2-yl)phenyl)-5H-pyrrolo[3,4-b]pyridin-7-amine]	38 nM
Cc1cc(C2(c3cccc(-c4cncc(C#N)c4)c3)N=C(N)c3ncccc32)cc(C)n1 (centres unmarked) [Example 5, 5-(3-(7-Amino-5-(2,6-dimethylpyridin-4-yl)-5H-pyrrolo[3,4-b]pyridin-5-yl)phenyl)nicotinonitrile]	2400 nM
NC1=NC(c2cccc(-c3cccc(Cl)c3)c2)(c2ccnc(C(F)(F)F)c2)c2cccnc21 (centres unmarked) [Example 1, 5-(3′-Chlorobiphenyl-3-yl)-5-(2-(trifluoromethyl)pyridin-4-yl)-5H-pyrrolo[3,4-b]pyridin-7-amine]	400 nM
COc1ccc(C2(c3cccc(-c4cncnc4)c3)N=C(N)c3ncc(C)cc32)cc1 (centres unmarked) [Example 11, 5-(4-Methoxyphenyl)-3-methyl-5-(3-(pyrimidin-5-yl)phenyl)-5H-pyrrolo[3,4-b]pyridin-7-amine]	2120 nM
Cc1cc(C2(c3cccc(-c4cnccn4)c3)N=C(N)c3ncccc32)cc(C)c1OCF (centres unmarked) [Example 27, 5-(4-(Fluoromethoxy)-3,5-dimethylphenyl)-5-(3-(pyrazin-2-yl)phenyl)-5H-pyrrolo[3,4-b]pyridin-7-amine]	90 nM
COc1c(F)cc(C2(c3ccc(F)c(-c4cncnc4)c3)N=C(N)c3ncccc32)cc1F (centres unmarked) [Example 6, 5-(3,5-Difluoro-4-methoxyphenyl)-5-(4-fluoro-3-(pyrimidin-5-yl)phenyl)-5H-pyrrolo[3,4-b]pyridin-7-amine]	156 nM
NC1=NC(c2ccnc(C(F)(F)F)c2)(c2ccc(O)c(-c3ccccc3F)c2)c2cccnc21 (centres unmarked) [Example 38, 5-(7-Amino-5-(2-(trifluoromethyl)pyridin-4-yl)-5H-pyrrolo[3,4-b]pyridin-5-yl)-2′-fluorobiphenyl-2-ol]	658 nM
Cc1cc(C2(c3cccc(C#N)c3)N=C(N)c3ncccc32)cc(C2CC2)c1OC(F)F (centres unmarked) [Example 32, 3-[7-Amino-5-(3-cyclopropyl-4-difluoromethoxy-5-methyl-phenyl)-5H-pyrrolo[3,4-b]pyridin-5-yl]-benzonitrile]	61 nM
Cc1cc(C2(c3ccccc3)N=C(N)c3ncccc32)cc(C2CC2)c1OC(F)F (centres unmarked) [Example 31, 5-[3-Cyclopropyl-4-(difluoromethoxy)-5-methyl-phenyl]-5-phenyl-pyrrolo[3,4-b]pyridin-7-amine]	815 nM
Cc1cc(C2(c3ccnc(-c4cncnc4)c3)N=C(N)c3ncccc32)cc(C2CC2)c1OC(F)F (centres unmarked) [Example 30, 5-(3-Cyclopropyl-4-difluoromethoxy-5-methyl-phenyl)-5-(2-pyrimidin-5-yl-pyridin-4-yl)-5H-pyrrolo[3,4-b]pyridin-7-ylamine]	119 nM
COc1c(C)cc(C2(c3cccc(-c4cnccn4)c3)N=C(N)c3ncccc32)cc1F (centres unmarked) [Example 15, 5-(3-Fluoro-4-methoxy-5-methylphenyl)-5-(3-(pyrazin-2-yl)phenyl)-5H-pyrrolo[3,4-b]pyridin-7-amine trifluoroacetic acid salt]	96 nM
